Data: publication PMC4326827, “Biophysical Studies on Interactions and Assembly of Full-size E3 Ubiquitin Ligase” (The Journal of Biological Chemistry, 2014)
Values belong to the molecule of their own block, whether it stands above or below them. *: point of attachment. Biotin = O=C1N[C@H]2[C@H](CS[C@H]2CCCCC(=O)*)N1; Ahx = NCCCCCC(=O)O

Assays:
[1] = molecular target: T1, SOCS2-EloBC (Homo sapiens, UniProt O14508+Q15369+Q15370); test: ITC of GHR peptides and phosphotyrosine into SOCS2-EloBC; format: binding; conditions: 298 K
T1 construct: Recombinant human SOCS2 (amino acids 32–198); His6 (cleaved yes); made in house; host or cells: Escherichia coli BL21(DE3)
T1 sequence (O14508 32-198): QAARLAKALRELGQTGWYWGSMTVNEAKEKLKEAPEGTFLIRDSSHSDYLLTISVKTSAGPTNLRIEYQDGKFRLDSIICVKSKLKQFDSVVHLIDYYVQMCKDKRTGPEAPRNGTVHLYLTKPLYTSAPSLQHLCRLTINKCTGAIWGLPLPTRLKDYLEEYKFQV
T1 sequence (Q15369 17-112 partner limits assumed): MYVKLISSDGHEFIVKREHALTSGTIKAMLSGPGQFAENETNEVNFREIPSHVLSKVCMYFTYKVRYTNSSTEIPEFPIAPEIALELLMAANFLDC
T1 sequence (Q15370 whole entry partner, the tested form may be a part): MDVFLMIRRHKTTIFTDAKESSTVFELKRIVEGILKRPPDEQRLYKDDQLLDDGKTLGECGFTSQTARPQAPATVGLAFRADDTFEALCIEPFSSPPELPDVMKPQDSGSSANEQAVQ

[2] = tested on: CRL5^SOCS2 (SOCS2, EloB, EloC, Cul5, and Rbx2); test: Peptide bead pull-down from K562 cell lysate, CRL5^SOCS2 components; format: binding; conditions: immobilized peptide beads, human K562 total cell lysate, 2 h at 4 °C, tandem mass tags MS
Excerpt: (§1) After washing, bound proteins were eluted with SDS-sample buffer and prepared for tandem mass tags labeling and MS analysis as described previously ([17]).

[3] = molecular target: GHR_pY595-SOCS2-EloBC complex; test: ITC of Cul5NTD into GHR_pY595-SOCS2-EloBC (cooperativity); format: binding, human; conditions: titration of Cul5NTD into GHR_pY595-SOCS2-EloBC complex
Description: Experiments were conducted using an iTC200 microcalorimeter instrument (GE Healthcare). […] Peptides and Tyr(P) were dissolved in the same buffer. Obtained data were analyzed and fitted using the Microcal Origin version 7.0 software package. Binding enthalpy, dissociation constants, and stoichiometry were determined by fitting the data using a one-set-of-site binding model.

[4] = tested on: CRL1^FBXO31 E3 ligase (FBXO31, Rbx1, Cul1, and Skp1); test: Peptide bead pull-down from K562 cell lysate, CRL1^FBXO31 subunits; format: binding; conditions: peptide beads, human K562 cell lysate, 2 h at 4 °C, MS
Excerpt: as §1

[5] = molecular target: SOCS2 (UniProt O14508); test: peptide-bead pull-down from lysate, TMT MS; conditions: reference: GHR_Y595 peptide beads; sites Y595

Molecule: N[C@@H](Cc1ccc(OP(=O)(O)O)cc1)C(=O)O [Tyr(P), phosphotyrosine]
- Kd ([1]; 350 μM peptide or 2 mM Tyr(P) into 30 μM SOCS2-EloBC, 50 mM HEPES, pH 7.5, 250 mM NaCl, 0.5 mM TCEP, one-set-of-site model): 191 µM
- binding affinity weaker than for phosphorylated peptide GHR_pY595 ([1]; ratio of Kd): ~100 -fold

Molecule: Biotin-aminohexanoic acid-PVPDpYTSIHIV-amide [GHR_pY595-beads]
- capture of CRL5^SOCS2 components on peptide beads [2]: endogenous components of CRL5^SOCS2 E3 ligase were only captured by GHR_pY595-beads

Molecule: Cul5NTD: Recombinant human Cul5NTD (N-terminal domain, residues 1–386) expressed in E. coli
- change in Kd or ΔH (cooperativity) [3]: No change in the Kd or ΔH values was observed

Molecule: GHR_Y595-containing beads: biotinylated non-phosphorylated GHR_Y595 peptide immobilized on high capacity Neutravidin beads ({Biotin-Ahx}-PVPDYTSIHIV-NH2; SMILES CC[C@H](C)[C@H](NC(=O)[C@H](CO)NC(=O)[C@@H](NC(=O)[C@H](Cc1ccc(O)cc1)NC(=O)[C@H](CC(=O)O)NC(=O)[C@@H]1CCCN1C(=O)[C@@H](NC(=O)[C@@H]1CCCN1C(=O)CCCCCNC(=O)CCCC[C@@H]1SC[C@@H]2NC(=O)N[C@@H]21)C(C)C)[C@@H](C)O)C(=O)N[C@@H](Cc1c[nH]cn1)C(=O)N[C@H](C(=O)N[C@H](C(N)=O)C(C)C)[C@@H](C)CC)
- capture of CRL5^SOCS2 components on peptide beads [2]: no significant capturing from cell lysates was observed
- capture of CRL1^FBXO31 subunits [4]: significant recruitment of the four CRL1^FBXO31 subunits was also observed

- binding against the reference [5]: gained
Molecule: growth hormone receptor (GHR) (from UniProt P10912) GHR_pY595 peptide beads
